# Measurements reported in patent US10538516B2, “Oxadiazole derivative and pharmaceutical containing same” (National Center for Geriatrics and Gerontology, priority 2015, dated 2020).
# Biological target: T1, GAβ-dependent amyloid fibril formation (Human Aβ1-40 + GM1-containing liposome) (Homo sapiens, UniProt P05067)
# T1 construct: Human Aβ1-40 (cat. #4307-v, prepared by Peptide Institute); purchased Peptide Institute 4307-v
# Assay: Thioflavin T (ThT) assay of GAβ-dependent amyloid fibril formation (Aβ1-40 with GM1-containing liposome)
# Type: biochemical
# Settings: @25 μM; read-out: ThT Inhibitory activity (% inhibition)
# Summary of the method: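 Human Aβ1-40 (75 μM stock) pre-incubated 10 min at room temperature with compound (75 or 15 μM solution), then GM1-containing cholesterol/sphingomyelin liposome added and incubated 37° C, 18 hours. Fibrils quantified by ThT fluorescence (ex 430/em 490 nm, pH 8.5 glycine buffer); inhibition as ratio to compound-free control.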
# T1 sequence (P05067 672-711 limits assumed): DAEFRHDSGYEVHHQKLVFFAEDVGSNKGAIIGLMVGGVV
row,SMILES,inhibition at 25 µM
1,"O=C(N[C@@H](CO)c1nc(-c2ccc(C3(F)COC3)cc2)no1)c1ccc(F)cc1 [Compound 190, 4-fluoro-N-[(1S)-1-{3-[4-(3-fluorooxetan-3-yl)phenyl]-1,2,4-oxadiazol-5-yl}-2-hydroxyethyl] benzamide]",67%
2,"O=C(N[C@@H](CO)c1nc(-c2ccc(C(F)(F)F)cc2)no1)c1ccc(F)cc1 [Compound 133, (S)-4-fluoro-N-(2-hydroxy-1-(3-(4-(trifluoromethyl)phenyl)-1,2,4-oxadiazol-5-yl)ethyl)benzamide]",88%
3,"O=C(NC(CO)c1nc(-c2ccc(C(F)(F)F)cc2)no1)c1cc2ccccc2[nH]1 (stereo not shown) [Compound 182, N-(2-hydroxy-1-{3-[4-(trifluoromethyl)phenyl]-1,2,4-oxadiazol-5-yl}ethyl)-1H-indole-2-carboxamide]",64%

# Same assay, conditions: final concentration of the compound 25 μM; ratio of ThT fluorescence intensity with/without compound; 37° C. for 18 hours; read-out: inhibition rate against amyloid fibril formation (inhibitory activity on a scale of A to C)
row,SMILES,inhibition at 25 µM
1,"O=C(N[C@@H](CO)c1nc(-c2ccc(C(F)(F)F)cc2)no1)c1ccc(F)cc1 [Compound 133, (S)-4-fluoro-N-(2-hydroxy-1-(3-(4-(trifluoromethyl)phenyl)-1,2,4-oxadiazol-5-yl)ethyl)benzamide]",> 80%

# Same assay, conditions: inhibition rate against amyloid fibril formation, final concentration of the compound 25 μM
row,SMILES,Inhibitory activity ABC evaluation
1,"Cl.O=C(N[C@@H](CO)c1nc(-c2ccc(C(F)(F)F)cn2)no1)c1ccc(Cl)cc1 [Compound 207, 4-chloro-N-[(1S)-2-hydroxy-1-{3-[5-(trifluoromethyl)pyridin-2-yl]-1,2,4-oxadiazol-5-yl}ethyl]benzamide hydrochloride]",A (80% or more was evaluated as A)

# Same assay, conditions: inhibition rate against amyloid fibril formation, final concentration of the compound 25 μM; 25 µM
row,SMILES,Inhibitory activity ABC evaluation
1,"O=C(N[C@@H](CO)c1nc(-c2ccc(C(F)(F)F)cc2)no1)c1ccc(F)cc1 [Compound 133, (S)-4-fluoro-N-(2-hydroxy-1-(3-(4-(trifluoromethyl)phenyl)-1,2,4-oxadiazol-5-yl)ethyl)benzamide]",A (80% or more was evaluated as A)

# Same assay, conditions: inhibition rate against amyloid fibril formation, final concentration of the compound 25 μM; read-out: Inhibitory activity ABC evaluation
row,SMILES,inhibition at 25 µM
1,"CS(=O)(=O)Nc1ccc(-c2nnc([C@H](CO)NC(=O)c3ccc(Cl)cc3)o2)cc1 [Compound 105, (S)-4-chloro-N-(2-hydroxy-1-(5-(4-(methyl-sulfonamido)phenyl)-1,3,4-oxadiazol-2-yl)ethyl)benzamide]",< 40%
2,"O=C1CC(c2nc(-c3ccc(OC(F)(F)F)cc3)no2)CN1Cc1ccc(Cl)cc1 (stereo not shown) [Compound 64, 1-(4-chlorobenzyl)-4-{3-[4-(trifluoromethoxy)phenyl]-1,2,4-oxadiazol-5-yl}pyrrolidin-2-one]",40 to 80%
3,"O=C(N[C@@H](CO)c1nc(-c2c[nH]c3ccc(Cl)cc23)no1)c1ccc(Cl)cc1F [Compound 252, 4-chloro-N-[(1S)-1-[3-(5-chloro-1H-indol-3-yl)-1,2,4-oxadiazol-5-yl]-2-hydroxyethyl]-2-fluorobenzamide]",40 to 80%
4,"CCN(C(=O)CCc1nc(-c2ccc(OC)cc2)no1)c1cccc(Cl)c1 [Compound 7, N-(3-chlorophenyl)-N-ethyl-3-{3-(4-methoxyphenyl)-1,2,4-oxadiazol-5-yl}propanamide]",40 to 80%
5,"CN(Cc1ccccc1)C(=O)CCc1nc(-c2ccc3c(c2)OCCO3)no1 [Compound 16, N-benzyl-3-{3-(2,3-dihydrobenzo[b][1,4]dioxin-6-yl)-1,2,4-oxadiazol-5-yl}-N-methylpropanamide]",< 40%
6,"N#Cc1ccc(N2CC(c3nc(-c4ccc(O)cc4)no3)CC2=O)cc1 (stereo not shown) [Compound 79, 4-[4-{3-(4-hydroxyphenyl)-1,2,4-oxadiazol-5-yl}-2-oxopyrrolidin-1-yl]benzonitrile]",< 40%
7,"CCCN(Cc1cccc(Cl)c1)C(=O)CCc1nc(-c2ccc(OC)cc2)no1 [Compound 9, N-(3-chlorobenzyl)-3-{3-(4-methoxyphenyl)-1,2,4-oxadiazol-5-yl}-N-propylpropanamide]",40 to 80%
8,"O=C1CC(c2nc(-c3ccc(OC(F)(F)F)cc3)no2)CN1c1ccc(Cl)nc1 (stereo not shown) [Compound 48, 1-(6-chloropyridin-3-yl)-4-[3-{4-(trifluoro-methoxy)phenyl}-1,2,4-oxadiazol-5-yl] pyrrolidin-2-one]",40 to 80%
9,"O=C(N[C@@H](CO)c1nc(-c2c[nH]c3ccc(Cl)cc23)no1)c1ccc(Cl)cn1 [Compound 254, 5-chloro-N-[(1S)-1-[3-(5-chloro-1H-indol-3-yl)-1,2,4-oxadiazol-5-yl]-2-hydroxyethyl] pyridine-2-carboxamide]",40 to 80%
10,"O=C1CC(CO)(c2nc(-c3ccc4c(c3)OC(F)(F)O4)no2)CN1c1ccc(Cl)cc1 (stereo not shown) [Compound 73, 1-(4-chlorophenyl)-4-[3-(2,2-difluorobenzo[d][1,3]dioxol-5-yl)-1,2,4-oxadiazol-5-yl]-4-(hydroxymethyl)pyrrolidin-2-one]",> 80%
11,"COc1ccc(CN2CC(c3nc(-c4ccc(OC(F)(F)F)cc4)no3)CC2=O)cc1 (stereo not shown) [Compound 50, 1-(4-methoxybenzyl)-4-[3-{4-(trifluoro-methoxy)phenyl}-1,2,4-oxadiazol-5-yl] pyrrolidin-2-one]",40 to 80%
12,"N#Cc1cccc(-c2nnc([C@H](CO)NC(=O)c3ccc(Cl)cc3)o2)c1 [Compound 106, (S)-4-chloro-N-(1-(5-(3-cyanophenyl)-1,3,4-oxadiazol-2-yl)-2-hydroxyethyl) benzamide]",40 to 80%
13,"O=C1CC(c2nc(-c3ccc(OC(F)(F)F)cc3)no2)CN1c1ccc(Cl)cc1 (stereo not drawn) [Compound 23, l-(4-chlorophenyl)-4-[3-{4-(trifluoromethoxy)phenyl}-1,2,4-oxadiazol-5-yl]pyrrolidin-2-one]",40 to 80%
14,"CN(C(=O)CCc1nc(-c2ccc(OC(F)(F)F)cc2)no1)c1cccc(Cl)c1 [Compound 11, N-(3-chlorophenyl)-N-methyl-3-[3-{4-(trifluoromethoxy)phenyl}-1,2,4-oxadiazol-5-yl]propanamide]",40 to 80%
15,"O=C(NC(CNCCO)c1nnc(-c2ccc(OC(F)(F)F)cc2)o1)c1ccc(Cl)cc1 (stereo not shown) [Compound 119, 4-chloro-N-(2-((2-hydroxyethyl)amino)-1-(5-(4-(trifluoro-methoxy)phenyl)-1,3,4-oxadiazol-2-yl)ethyl) benzamide]",40 to 80%
16,"O=C1CC(c2nnc(-c3ccc(OC(F)(F)F)cc3)[nH]2)CN1c1ccc(Cl)cc1 (stereo not shown) [Compound 123, 1-(4-chlorophenyl)-4-{5-[4-(trifluoromethoxy)phenyl]-4H-1,2,4-triazol-3-yl}pyrrolidin-2-one]",< 40%
17,"O=C1CC(c2nc(-c3ccc(OC(F)(F)F)cc3)no2)CN1c1cccc(Cl)c1 (stereo not shown) [Compound 27, 1-(3-chlorophenyl)-4-{3-[4-(trifluoromethoxy)phenyl]-1,2,4-oxadiazole-5-yl}pyrrolidin-2-one]",40 to 80%

# Results, then the compound that gave them:
row,inhibition at 25 µM,SMILES
1,40 to 80%,"O=C(N[C@H](CO)c1nc(-c2ccc(C(F)(F)F)cc2)no1)c1ccc(Cl)cc1 [Compound 214, 4-chloro-N-[(1R)-2-hydroxy-1-{3-[4-(trifluoromethyl)phenyl]-1,2,4-oxadiazol-5-yl}ethyl]benzamide]"
2,40 to 80%,"O=C(N[C@@H](CO)c1nc(-c2nc3ccc(O)cc3s2)no1)c1ccc(F)cc1 [Compound 259, 4-fluoro-N-[(1S)-2-hydroxy-1-[3-(6-hydroxy-1,3-benzothiazol-2-yl)-1,2,4-oxadiazol-5-yl]ethyl] benzamide]"
3,40 to 80%,"O=C(N[C@@H](CO)c1nc(-c2ccc(O)cc2F)no1)c1ccccc1 [Compound 142, N-[(1S)-1-[3-(2-fluoro-4-hydroxyphenyl)-1,2,4-oxadiazol-5-yl]-2-hydroxyethyl]benzamide]"
4,40 to 80%,CCOCCOc1ccc(C(=O)N[C@@H](CO)c2nc(-c3ccc(C(F)(F)F)cc3)no2)cc1 [Compound 170]
5,40 to 80%,"O=C(N[C@@H](CO)c1nc(-c2ccc(C3(F)COC3)cc2)no1)c1ccc(F)cc1 [Compound 190, 4-fluoro-N-[(1S)-1-{3-[4-(3-fluorooxetan-3-yl)phenyl]-1,2,4-oxadiazol-5-yl}-2-hydroxyethyl] benzamide]"
6,> 80%,"O=C(N[C@@H](CO)c1nc(-c2ccc(C(F)(F)F)cc2)no1)c1ccc(F)nc1 [Compound 157, 6-fluoro-N-[(1S)-2-hydroxy-1-{3-[4-(trifluoromethyl)phenyl]-1,2,4-oxadiazol-5-yl}ethyl] pyridine-3-carboxamide]"
7,40 to 80%,"O=C(NC(CO)c1nc(-c2ccc(C(F)(F)F)cc2)no1)c1cc2ccccc2[nH]1 (stereo not shown) [Compound 182, N-(2-hydroxy-1-{3-[4-(trifluoromethyl)phenyl]-1,2,4-oxadiazol-5-yl}ethyl)-1H-indole-2-carboxamide]"
8,40 to 80%,"O=C(N[C@@H](CO)c1nc(-c2ccc(C(F)(F)F)c(F)c2)no1)c1ccc(F)cc1 [Compound 217, 4-fluoro-N-[(1S)-1-{3-[3-fluoro-4-(trifluoromethyl)phenyl]-1,2,4-oxadiazol-5-yl}-2-hydroxyethyl] benzamide]"
9,> 80%,"O=C(N[C@@H](CO)c1nc(-c2ccc(C(F)(F)F)cc2)no1)c1ccc(Oc2ccccc2)cc1 [Compound 201, N-[(1S)-2-hydroxy-1-{3-[4-(trifluoromethyl)phenyl]-1,2,4-oxadiazol-5-yl}ethyl]-4-phenoxybenzamide]"
10,< 40%,"O=C(N[C@@H](CO)c1nc(-c2ccc(C(F)(F)F)cc2)no1)c1cn2ccccc2n1 [Compound 240, N-[(1S)-2-hydroxy-1-{3-[4-(trifluoromethyl)phenyl]-1,2,4-oxadiazol-5-yl}ethyl]imidazo[1,2-a]pyridine-2-carboxamide]"
11,40 to 80%,"CC(C)c1ccc(-c2noc([C@H](CO)NC(=O)c3ccccc3)n2)cc1 [Compound 145, N-[(1S)-2-hydroxy-1-{3-[4-(propan-2-yl)phenyl]-1,2,4-oxadiazol-5-yl}ethyl]benzamide]"
12,40 to 80%,"O=C(N[C@@H](CO)c1nc(-c2ccc(C(F)(F)F)cc2)no1)c1ccc2ccccc2c1 [Compound 202, N-[(1S)-2-hydroxy-1-{3-[4-(trifluoromethyl)phenyl]-1,2,4-oxadiazol-5-yl}ethyl]naphthalene-2-carboxamide]"
13,> 80%,"O=C(N[C@@H](CO)c1nc(-c2ccc(C(=O)C(F)(F)F)cc2)no1)c1ccc(F)cc1 [Compound 164, 4-fluoro-N-[(1S)-2-hydroxy-1-{3-[4-(2,2,2-trifluoroacetyl)phenyl]-1,2,4-oxadiazol-5-yl}ethyl] benzamide]"
14,40 to 80%,"O=C(N[C@@H](CO)c1nc(-c2ccc(-n3cccn3)cc2)no1)c1ccc(F)cc1 [Compound 179, 4-fluoro-N-[(1S)-2-hydroxy-1-{3-[4-(1H-pyrazol-1-yl)phenyl]-1,2,4-oxadiazol-5-yl}ethyl]benzamide]"
